Results on nine molecules are retold here after patent publication US10414732B2, “Polymorphic compounds and uses thereof” (priority 2017, dated 2019).

Type in all cases: physicochemical
The nature of data set [1]: Aqueous solubility determination via HPLC calibration curve. Here is the method:
The solubility determination was made as follows. Each salt suspension was made by adding 50-100 mg of material into a minimum amount of water (0.1-0.2 mL to start). Based on solubility, additional material was added to obtain a salt suspension. The suspension was then filtered through a 0.25 μm filter and the filtrate was further diluted with water and the salt solution was analysed by HPLC. The concentration of the salt solution injected was calculated with the linear equation y=mx+c derived from the calibration curves, with Y referring to the HPLC response obtained for the salt solution injected.

Data set [2] can be described thus: Characterization of the resulting solid form (hygroscopicity).
Data set [3] is described as follows: Competitive slurries (cross-seeding) of free base Forms A and B, solids analysed by XRPD. The conditions noted are these: for XRPD form after competitive slurry: Forms A and B equal amounts, 72 h. The method, then:
This set of experiments was performed using various solvents and solvent combinations. Cross-seeding experiments were performed over a range of temperatures to help define the relationship between Forms A and B.
Procedure: Twenty-one cross-seeding experiments were performed by adding equal amounts of Forms A and B (weight/weight, total of 25 mg). The mixture was slurried in the given solvent/system (ca. 5 vol. 125 μl) at room temperature, then matured at a specific temperature (5° C., 25° C. or 50° C.) for 72 h. The solids were filtered, air dried and analysed by XRPD. After two days, samples 3 and 15 were completely dry and additional portions of their corresponding solvents were added, (250 μl was added to sample 3 and 248.6 μl was added to sample 15). Solids obtained were characterised by XRPD.

The mark [4] stands for this setting: water, thermodynamic from solid, aqueous (water), filtered suspension, HPLC, read-out: Solubility.
The mark [5] stands for this setting: aqueous (water), filtered suspension, HPLC.

In brackets after ≈: the same amount, converted by molar mass. Like-named read-outs stand apart in the source and are kept apart here.

One may read the solubility as the dissolved amount per volume that the medium holds. As to `CC(C)(O)c1nc2ccc(Cl)cc2cc1N.CS(=O)(=O)O` [Compound 1], the solubility in data set [1] (setting [4]) was above 1500 mg/mL. Besides, the “Aqueous solubility compared with the other compounds” value in data set [1] (water, comparison in words) is recorded as “highest solubility”. The Hygroscopicity entry in data set [2] (Form B) is given as “slightly hygroscopic”.
With `CC(C)(O)c1nc2ccc(Cl)cc2cc1N.O=S(=O)(O)c1ccccc1` [Compound 2], in data set [2] (Form A), the Hygroscopicity entry is listed as “slightly hygroscopic”.
On to `CC(C)(O)c1nc2ccc(Cl)cc2cc1N.O=S(=O)(O)O` [Compound 3], for which the solubility in data set [1] (thermodynamic from solid, aqueous (water), filtered suspension, HPLC, read-out: Solubility) is 421 mg/mL. In addition, the Hygroscopicity result in data set [2] (Form A) is on record as “slightly hygroscopic”.
As for `CC(C)(O)c1nc2ccc(Cl)cc2cc1N.Cc1ccc(S(=O)(=O)O)cc1` [Compound 4], the solubility in data set [1] (setting [4]) was 11 mg/mL.
With `CC(C)(O)c1nc2ccc(Cl)cc2cc1N` [Compound 5], the solubility in data set [1] (setting [5]) is on record as 73 mg/mL (≈ 308 mM). Moreover, the Hygroscopicity entry in data set [2] (Form A) is given as “slightly hygroscopic”.
In data set [1] (water, thermodynamic from solid, Solubility), `CC(C)(O)c1nc2ccc(Cl)cc2cc1N.O=C(O)C(=O)O` [Compound 6] displayed a solubility of 15.6 mg/mL.
Turning to `CC(C)(O)c1nc2ccc(Cl)cc2cc1N.O=P(O)(O)O` [Compound 7], the solubility in data set [1] (setting [4]) is above 500 mg/mL. For the same molecule, the Hygroscopicity result in data set [2] (Form A) is recorded as “slightly hygroscopic”.
For `CC(C)(O)c1nc2ccc(Cl)cc2cc1N` [Compound 8], in data set [1] (setting [5]), the solubility is reported as 35 mg/mL (≈ 148 mM).
Consider `CC(C)(O)c1nc2ccc(Cl)cc2cc1N` [Compound A], for which, in data set [3], the “Transition temperature between Form A and Form B” value is “below 50 °C”. Further, the “XRPD form after competitive slurry” value is reported as “Form B” in data set [3] (Acetone:H2O (10%), 5° C.); “Form B” in data set [3] (Acetone:H2O (10%), 25° C.); “Forms A & B” in data set [3] (Acetone:H2O (10%), 50° C.); “Forms A & B” in data set [3] (Cyclohexane, 5° C.); “Form B” in data set [3] (Cyclohexane, 25° C.); “Form B” in data set [3] (Cyclohexane, 50° C.). The “XRPD form after competitive slurry” value in data set [3] (EtOAc:Heptane, 5° C.) is “Form B”; in data set [3] (EtOAc:Heptane, 25° C.) it was “Form B”; in data set [3] (EtOAc:Heptane, 50° C.) it was “Form B”; in data set [3] (Heptane, 5° C.), “Form B”; in data set [3] (Heptane, 25° C.), “Form B”; in data set [3] (Heptane, 50° C., additional solvent added) it was “Form B”. Further, the “XRPD form after competitive slurry” value is reported as “Form B” in data set [3] (Toluene, 5° C.); “Form B” in data set [3] (Toluene, 25° C.); “Form A” in data set [3] (Toluene, 50° C.); “Form B” in data set [3] (Toluene:Cyclohexane, 5° C.); “Form B” in data set [3] (Toluene:Cyclohexane, 25° C.); “Form B” in data set [3] (Toluene:Cyclohexane, 50° C.). In addition, the “XRPD form after competitive slurry” value is “Form B” in data set [3] (Toluene:Heptane, 5° C.); “Form B” in data set [3] (Toluene:Heptane, 25° C.); “Form B” in data set [3] (Toluene:Heptane, 50° C., additional solvent added). In data set [3] (two anhydrous forms (Form A & Form B), under the investigated conditions), the “Most stable form in competitive slurries” value was “Form B”. The solubility in data set [1] (setting [5]) was below 0.1 mg/mL. Further, the results for the Hygroscopicity entry in data set [2] (Form A) and in data set [2] (Form B) were “non-hygroscopic” and “slightly hygroscopic”, respectively.
